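Five concentrations, 48 hours, 96-well plates. GI50 = concentration required for 50% inhibition of growth. Definition used: TGI = concentration required for complete inhibition of growth.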
Legend:
Test in all cases: NCI-60 cell line screen, 48 h
HCT-116 colon = tested on: HCT-116 colon
RXF 393 renal = tested on: RXF 393 renal
IGROV1 ovarian = tested on: IGROV1 ovarian
U251 CNS = tested on: U251 CNS
NCI-H23 lung = tested on: NCI-H23 lung
SF-295 CNS = tested on: SF-295 CNS
HOP-92 NSCLC = tested on: HOP-92 NSCLC
HS 578T breast = tested on: HS 578T breast
BT-549 breast = tested on: BT-549 breast
T-47D breast = tested on: T-47D breast

For `CC1(C)OC(=O)[C@@](C)([C@H](O)c2ccccc2)O1`, the TGI (HCT-116 colon) was greater than 100 µM, the TGI (RXF 393 renal) was greater than 100 µM and the TGI (IGROV1 ovarian) was greater than 100 µM. The TGI (U251 CNS) was greater than 100 µM, the TGI (NCI-H23 lung) was greater than 100 µM and the TGI (SF-295 CNS) was greater than 100 µM. The TGI (HOP-92 NSCLC) was greater than 100 µM.
For `[C-]#[O+].[Cl][Sn]([Cl])[Cl].[Cl][Sn]([Cl])[Cl].[Pt].c1ccc([PH+](c2ccccc2)c2ccccc2)cc1.c1ccc([PH+](c2ccccc2)c2ccccc2)cc1`, the GI50 (HCT-116 colon) was 43.2 µM, the TGI (HCT-116 colon) was greater than 100 µM and the GI50 (RXF 393 renal) was 1.57 µM. The TGI (RXF 393 renal) was 9.82 µM, the GI50 (IGROV1 ovarian) was 20.9 µM and the TGI (IGROV1 ovarian) was greater than 100 µM. For the same molecule, the GI50 (U251 CNS) was 15.3 µM, the TGI (U251 CNS) was 42.5 µM and the GI50 (NCI-H23 lung) was 13.7 µM. It also gave a TGI (NCI-H23 lung) of 37 µM, a GI50 (SF-295 CNS) of 71.5 µM and a TGI (SF-295 CNS) greater than 100 µM. The GI50 (HOP-92 NSCLC) was 17.1 µM and the TGI (HOP-92 NSCLC) was 46.8 µM.
Molecule `O=C(O)C1CCc2nnc(-c3ccccc3)n21` (stereo not drawn) has a TGI (HCT-116 colon) greater than 100 µM, a TGI (RXF 393 renal) greater than 100 µM and a TGI (IGROV1 ovarian) greater than 100 µM. The TGI (U251 CNS) was greater than 100 µM.
Work on `COc1c(C2=NC(C(C)C)CO2)ccc2ccccc12` (stereo not drawn) yielded a TGI (RXF 393 renal) of 86.8 µM, a TGI (IGROV1 ovarian) greater than 100 µM and a TGI (NCI-H23 lung) greater than 100 µM. The TGI (SF-295 CNS) was greater than 100 µM and the TGI (HOP-92 NSCLC) was greater than 100 µM.
Molecule `CCOC(=O)c1cc(/C=C/C(C)=C/C(=O)OC)oc1-c1ccccc1` has a TGI (HCT-116 colon) greater than 100 µM, a TGI (IGROV1 ovarian) greater than 100 µM and a TGI (U251 CNS) greater than 100 µM. For the same molecule, the TGI (NCI-H23 lung) was greater than 100 µM and the TGI (SF-295 CNS) was greater than 100 µM.
Work on `CN(C)c1ccc2c(c1)CN1C(=O)c3ccccc3C1=N2` yielded a GI50 (HCT-116 colon) greater than 100 µM, a TGI (HCT-116 colon) greater than 100 µM and a GI50 (RXF 393 renal) greater than 100 µM. For the same molecule, the TGI (RXF 393 renal) was greater than 100 µM, the GI50 (IGROV1 ovarian) was greater than 100 µM and the TGI (IGROV1 ovarian) was greater than 100 µM. For the same molecule, the GI50 (U251 CNS) was greater than 100 µM, the TGI (U251 CNS) was greater than 100 µM and the GI50 (NCI-H23 lung) was greater than 100 µM. The TGI (NCI-H23 lung) was greater than 100 µM, the GI50 (SF-295 CNS) was greater than 100 µM and the TGI (SF-295 CNS) was greater than 100 µM. For the same molecule, the GI50 (HOP-92 NSCLC) was greater than 100 µM and the TGI (HOP-92 NSCLC) was greater than 100 µM.
In the case of `Nc1ncnc2c1ncn2C1OC(CSC(F)(F)F)C(O)C1O` (stereo not drawn), the TGI (HCT-116 colon) is reported as greater than 100 µM, the TGI (IGROV1 ovarian) is reported as greater than 100 µM and the TGI (U251 CNS) is reported as greater than 100 µM. The TGI (NCI-H23 lung) was greater than 100 µM, the TGI (SF-295 CNS) was greater than 100 µM and the TGI (HOP-92 NSCLC) was greater than 100 µM.
In the case of `CC1(C)C(c2ccccc2)C12CCC1(C2=O)C(c2ccccc2)C1(C)C` (stereo not drawn), the TGI (HCT-116 colon) is reported as 33.6 µM, the TGI (RXF 393 renal) is reported as 45.7 µM and the TGI (IGROV1 ovarian) is reported as greater than 100 µM. For the same molecule, the TGI (U251 CNS) was 34.9 µM, the TGI (NCI-H23 lung) was 44.6 µM and the TGI (SF-295 CNS) was 47.2 µM. For the same molecule, the TGI (HOP-92 NSCLC) was 31.6 µM.
With `O=S1CSCS1` (stereo not drawn) the TGI (HCT-116 colon) was greater than 100 µM, the TGI (RXF 393 renal) was greater than 100 µM and the TGI (IGROV1 ovarian) was greater than 100 µM. The TGI (U251 CNS) was greater than 100 µM, the TGI (NCI-H23 lung) was greater than 100 µM and the TGI (SF-295 CNS) was greater than 100 µM. It also gave a TGI (HOP-92 NSCLC) greater than 100 µM.
For `Cc1cc(=O)n(-c2ccccc2)c(=O)o1`, the TGI (HCT-116 colon) was greater than 100 µM, the TGI (RXF 393 renal) was greater than 100 µM and the TGI (IGROV1 ovarian) was greater than 100 µM. For the same molecule, the TGI (U251 CNS) was greater than 100 µM, the TGI (NCI-H23 lung) was greater than 100 µM and the TGI (SF-295 CNS) was greater than 100 µM. The TGI (HOP-92 NSCLC) was greater than 100 µM.
Work on `CC1(C)CCC[C@@]2(C)C1C[C@H](O)[C@@]1(C)O[C@@](C)([C@H](O)CO)CCC21` (stereo partly drawn) yielded a TGI (HCT-116 colon) greater than 100 µM, a TGI (IGROV1 ovarian) of 70.6 µM and a TGI (U251 CNS) greater than 100 µM. For the same molecule, the TGI (NCI-H23 lung) was greater than 100 µM, the TGI (SF-295 CNS) was greater than 100 µM and the TGI (HOP-92 NSCLC) was 70.7 µM.
`Cc1onc(-c2c(F)cccc2Cl)c1-c1ncc(-c2ccc(Cl)cc2)o1` gave a GI50 (HCT-116 colon) of 2.76 µM, a TGI (HCT-116 colon) greater than 100 µM and a GI50 (RXF 393 renal) of 6.45 µM. It also gave a TGI (RXF 393 renal) of 90.7 µM, a GI50 (IGROV1 ovarian) of 6.44 µM and a TGI (IGROV1 ovarian) greater than 100 µM. The GI50 (HS 578T breast) was 14.1 µM, the TGI (HS 578T breast) was greater than 100 µM and the GI50 (BT-549 breast) was 6.5 µM. It also gave a TGI (BT-549 breast) greater than 100 µM, a GI50 (T-47D breast) of 3.48 µM and a TGI (T-47D breast) greater than 100 µM. For the same molecule, the GI50 (NCI-H23 lung) was 5.04 µM, the TGI (NCI-H23 lung) was greater than 100 µM and the GI50 (SF-295 CNS) was 8.66 µM. The TGI (SF-295 CNS) was greater than 100 µM.
